e = 2'-O-(2-methoxyethyl) (MOE); d = 2'-deoxy (DNA)
Tested on: JNK3 mRNA
Assay: Northern assay of JNK3 mRNA levels in SH-SY5Y cells
Format: cell-based, human
Conditions: 200 nM oligonucleotide
Protocol: Northern Assays: The mRNA expression of each JNK protein was determined by using a nucleic acid probe specifically hybridizable thereto. Nucleic acid probes specific for JNK1, JNK2 and JNK3 are described in Examples 3, 4 and 5, respectively. The probes were radiolabelled by means well known in the art (see, e.g., Short Protocols in Molecular Biology, 2nd Ed., Ausubel et al., Eds., John Wiley & Sons, New York, 1992, pages 3-11 to 2-3-44 and 4-17 to 4-18; Ruth, Chapter 6 In: Methods in Molecular Biology, Vol. 26: Protocols for Oligonucleotide Conjugates, Agrawal, ed., Humana Press Inc., Totowa, N.J., 1994, pages 167-185; and Chapter 10 In: Molecular Cloning: A Laboratory Manual, 2nd Ed., Sambrook et al., Eds., pages 10.1-10.70). The blots were stripped and reprobed with a ^32P-labeled glyceraldehyde 3-phosphate dehydrogenase (G3PDH) probe (Clontech Laboratories, Inc., Palo Alto, Calif.) in order to confirm equal loading of RNA and to allow the levels of JNK transcripts to be normalized with regard to the G3PDH signals.
B. JNK3-specific probes: In initial screenings of a set of oligonucleotides derived from the JNK3 sequence for biological activity, a cDNA clone of JNK3 (Derijard et al., Cell, […], 76, 1025) was radiolabeled and used as a JNK3-specific probe in Northern blots. Alternatively, however, one or more of the oligonucleotides of Table 14 is detectably labeled and used as a JNK3-specific probe.
E. Activities of JNK3 oligonucleotides: The JNK3-specific phosphorothioate, 2′-methoxyethoxy “gapmer” oligonucleotides (Table 14) were screened for their ability to affect JNK3 mRNA levels in SH-SY5Y cells (Biedler et al., Cancer Res., 1973, 33, 2643). SH-SY5Y cells express a variety of mitogen-activated protein kinases (MAPKs; see, e.g., Cheng et al., J. Biol. Chem., 1998, 273, 14560). Cells were grown in DMEM essentially as previously described (e.g., Singleton et al., J. Biol. Chem., 1996, 271, 31791; Jalava et al., Cancer Res., 1990, 50, 3422) and treated with oligonucleotides at a concentration of 200 nM as described in Example 2. Control cultures were treated with an aliquot of LIPOFECTIN™ that contained no oligonucleotide.

Substance	% EXPRESSION	% INHIBITION
16690 (antisense TTCAACAGTTTCTTGCATAA; sugars from the 5' end e6 d8 e6, all phosphorothioate, methylation of C not given here) [compound 16690]	60%	40%
16691 (antisense CTCATCTATAGGAAACGGGT; sugars from the 5' end e6 d8 e6, all phosphorothioate, methylation of C not given here) [compound 16691]	66%	34%
16692 (antisense TGGAGGCTCATAAATACCAC; sugars from the 5' end e6 d8 e6, all phosphorothioate, methylation of C not given here) [compound 16692]	47%	–
16693 (antisense TATAAGAAATGGAGGCTCAT; sugars from the 5' end e6 d8 e6, all phosphorothioate, methylation of C not given here) [compound 16693]	40%	–
16694 (antisense TCACATCCAATGTTGGTTCA; sugars from the 5' end e6 d8 e6, all phosphorothioate, methylation of C not given here) [compound 16694]	42%	–
16695 (antisense TTATCGAATCCCTGACAAAA; sugars from the 5' end e6 d8 e6, all phosphorothioate, methylation of C not given here) [compound 16695]	44%	–
16696 (antisense GTTTGGCAATATATGACACA; sugars from the 5' end e6 d8 e6, all phosphorothioate, methylation of C not given here) [compound 16696]	55%	–
16697 (antisense CTGTCAAGGACAGCATCATA; sugars from the 5' end e6 d8 e6, all phosphorothioate, methylation of C not given here) [compound 16697]	54%	–
16698 (antisense AATCACTTGACATAAGTTGG; sugars from the 5' end e6 d8 e6, all phosphorothioate, methylation of C not given here) [compound 16698]	63%	37%
16699 (antisense TAAATCCCTGTGAATAATTC; sugars from the 5' end e6 d8 e6, all phosphorothioate, methylation of C not given here) [compound 16699]	61%	39%
16702 (antisense TGTTCTCTTTCATCCAACTG; sugars from the 5' end e6 d8 e6, all phosphorothioate, methylation of C not given here) [compound 16702]	39%	–
16703 (antisense TCTCACTGCTGTTCACTGCT; sugars from the 5' end e6 d8 e6, all phosphorothioate, methylation of C not given here) [compound 16703]	30%	–
16704 (antisense GGGTCTGGTCGGTGGACATG; sugars from the 5' end e6 d8 e6, all phosphorothioate, methylation of C not given here) [compound 16704]	36%	–
16705 (antisense AGGCTGCTGTCAGTGTCAGA; sugars from the 5' end e6 d8 e6, all phosphorothioate, methylation of C not given here) [compound 16705]	42%	–
16706 (antisense TCACCTGCAACAACCCAGGG; sugars from the 5' end e6 d8 e6, all phosphorothioate, methylation of C not given here) [compound 16706]	45%	–
16707 (antisense GCGGCTAGTCACCTGCAACA; sugars from the 5' end e6 d8 e6, all phosphorothioate, methylation of C not given here) [compound 16707]	73%	27%
16708 (antisense CGCTGGGTTTCGCAGGCAGG; sugars from the 5' end e6 d8 e6, all phosphorothioate, methylation of C not given here) [compound 16708]	68%	32%
16709 (antisense ATCATCTCCTGAAGAACGCT; sugars from the 5' end e6 d8 e6, all phosphorothioate, methylation of C not given here) [compound 16709]	66%	34%

Source: patent US20040029823A1, “Antisense oligonucleotide compositions and methods for the modulation of JNK proteins” (priority 1997, published 2004)
